Paper PMC10301432, “Antiplasmodial, Trypanocidal, and Genotoxicity In Vitro Assessment of New Hybrid α,α-Difluorophenylacetamide-statin Derivatives” (Pharmaceuticals, 2023)
“Also recorded” adds a separate entry of the source.

Tests used:
[1] = Salmonella/microsome assay, TA100; conditions: Salmonella enterica serovar Typhimurium, S. typhimurium TA100 without S9 mix, pH 7.4
[2] = Salmonella/microsome assay, TA98; conditions: Salmonella enterica serovar Typhimurium, S. typhimurium TA98 without S9 mix, pH 7.4
Experimental: (§1) Salmonella enterica serovar Typhimurium (S. typhimurium) strains TA97, TA98, TA100, TA104 and TA102 from the authors’ stock were used as described in the mutagenicity assay.
(§2) To determine the cytotoxic effects, after 30 min pre-incubation, the assay mixtures were diluted in 0.9% NaCl (w/v) to obtain a suspension containing 2 × 10^2 cells/mL. […] The plates were then incubated at 37 °C for 24 h and the colonies counted. All the experiments were conducted in triplicate and were repeated at least twice. Statistical differences between the groups were analyzed by a two-way ANOVA (p < 0.05) and Tukey’s post hoc test.

[3] = tested on: HepG2 cells; assay: In vitro micronuclei assay, HepG2; format: cell-based, human; conditions: HepG2; 3 h of exposure
Experimental: Fresh HepG2 and CHO-K1 cells were seeded at the density of 1 × 10^5 cells/mL into 24-well plates (1 mL/per well). The compounds 13 (a–d) were then added to the medium to final concentrations of 500, 1000 and 2000 µM and incubation continued for 3 h or 24 h. DMSO 10% was used as the negative control, and, BaP (80 µM) for HepG2 and MMC (5 µM) for CHO-K1 were the positive controls. After exposure to the compounds, the cells were incubated for more than 24 h under growth conditions before quantification of the micronuclei and cytotoxicity. The cytogenetic studies were carried out in triplicate as described previously (see [51]). In order to determine the mitotic index and the number of cells with micronuclei, the medium was replaced by a cold methanol-glacial acetic acid (3:1) fixative for 30 min, and the cells then rinsed with distilled water for 2 min and air dried. The fixed cells were stained with 4,6-diamidino-2-phenylindole (DAPI) ([…]) dissolved in McIlvaine buffer (0.1 M citric acid plus 0.2 M Na2HPO4, pH 7.0) for 60 min, washed with McIlvaine buffer for 5 min, briefly rinsed with distilled water and mounted in glycerol. To determine the mitotic index and the number of cells with micronuclei, 1000 cells per well (3000 cells per concentration) were analyzed under a fluorescence microscope. The results for micronuclei were presented as the percentage of cells containing micronuclei in the 3000 cells/concentration group analyzed. Cells that glowed brightly and had homogenous nuclei were considered as having normal phenotypic morphology. Apoptotic nuclei were identified by the condensed chromatin at the periphery of the nuclear membrane or by fragmented nuclear body morphology. Necrotic cells presented chromatin forms with irregularly shaped aggregates, a pyknotic nucleus (shrunken and darkly stained) and cell membrane disruption, with cellular debris spilled into the extracellular milieu. Once again, 3000 cells were counted and the percentage of viable cells was evaluated, discounting apoptotic and necrotic cells. Statistical differences between the groups were analyzed by two-way ANOVA (p < 0.01) and Tukey’s post hoc test.

[4] = Salmonella/microsome assay, TA97; conditions: Salmonella enterica serovar Typhimurium, S. typhimurium TA97 without S9 mix, pH 7.4
Experimental: as §1, §2

[5] = tested on: human hepatoma cell line (HepG2); assay: in vitro; format: cell-based; conditions: preliminary cytotoxicity, HepG2
Method in brief: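 Cells grown in MEM with 10% FBS at 37 °C, 5% CO2, and seeded at 1 × 10^4/well. After treatment, viability read by WST-1 over 3 h incubation, absorbance at 440 nm.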

CC(=O)Nc1ccc(C)cc1C(F)(F)C(=O)NCC[C@@H]1C[C@H](CC(=O)OC(C)(C)C)OC(C)(C)O1 [Compound 13b, tert-Butyl 2-((4R,6R)-6-(2-(2-(2-acetamido-5-methylphenyl)-2,2-difluoroacetamido)ethyl)-2,2-dimethyl-1,3-dioxan-4-yl)acetate]
CC50 at 30 min [1]: > 1500 µM
CC50 at 30 min [2]: > 1500 µM
cytotoxicity (survival rate) in micronuclei assay [3]: statistical enhancement; also recorded: cytotoxic
micronuclei formation (genotoxicity) [3]: statistical enhancement; also recorded: genotoxic; also recorded: only increased micronucleation in HepG2 cells at >2000 µM
CC50 at 30 min [4]: > 1500 µM
lack of toxic events up to [5]: up to 400 μM

CC(=O)Nc1ccc(Cl)cc1C(F)(F)C(=O)NCC[C@@H]1C[C@H](CC(=O)OC(C)(C)C)OC(C)(C)O1 [Compound 13c, tert-Butyl 2-((4R,6R)-6-(2-(2-(2-acetamido-5-chlorophenyl)-2,2-difluoroacetamido)ethyl)-2,2-dimethyl-1,3-dioxan-4-yl)acetate]
micronuclei formation (genotoxicity) [3]: did not induce micronuclei formation
lack of toxic events up to [5]: up to 400 μM

CC(=O)Nc1ccc(Br)cc1C(F)(F)C(=O)NCC[C@@H]1C[C@H](CC(=O)OC(C)(C)C)OC(C)(C)O1 [Compound 13d, tert-Butyl 2-((4R,6R)-6-(2-(2-(2-acetamido-5-bromophenyl)-2,2-difluoroacetamido)ethyl)-2,2-dimethyl-1,3-dioxan-4-yl)acetate]
CC50 at 30 min [1]: 120 ± 14.1 µM
CC50 at 30 min [2]: 1260 ± 46.8 µM
cytotoxicity (survival rate) in micronuclei assay [3]: non-cytotoxic
micronuclei formation (genotoxicity) [3]: induced a significant micronuclei formation; also recorded: induced genotoxicity
CC50 at 30 min [4]: 1490 ± 36.5 µM

CC(=O)Nc1ccccc1C(F)(F)C(=O)NCC[C@@H]1C[C@H](CC(=O)OC(C)(C)C)OC(C)(C)O1 [Compound 13a, tert-Butyl 2-((4R,6R)-6-(2-(2-(2-acetamidophenyl)-2,2-difluoroacetamido)ethyl)-2,2-dimethyl-1,3-dioxan-4-yl)acetate]
cytotoxicity (survival rate) in micronuclei assay [3]: significant cytotoxic effects upon 1000 µM
micronuclei formation (genotoxicity) [3]: did not induce micronuclei formation; also recorded: non-genotoxic
